# According to patent publication US20190201414A1, “INHIBITOR OF HEME DEGRADATION FOR USE TO IMPROVE ANTIBIOTIC TREATMENT OF MYCOBACTERIUM TUBERCULOSIS INFECTION” (The United States of America, as represented by the …, priority 2016, published 2019):
# Entries after “also recorded” stand apart in the source; their conditions may differ. Where two headings read alike, the source gives them in different places.
# What was measured:
# [1] = tested on: Mtb-infected bone marrow derived macrophages (BMDM); assay: bacterial load in Mtb-infected bone marrow derived macrophages; format: cell-based; settings: for reduction in the number of bacilli: iron chelating agent added to SnPPIX; for intracellular bacterial burden: iron chelating agent alone; for effect on SnPPIX-induced reduction in bacillary load: incubated in conjunction with SnPPIX; for number of bacteria: iron donor added alone
# [2] = tested on: M. tuberculosis strain H37Rv; assay: micro-dilution broth MIC99 assay in GAST media; format: cell-based; settings: for MIC99: read-out: day 28 MIC99; for inhibition of bacterial growth: 28-day period
# [3] = tested on: GFP-expressing M. tuberculosis/pMSP12; assay: microbe, parasite or virus in culture; format: cell-based; settings: for MIC: read-out: day 21 MIC95
# [4] = tested on: M. tuberculosis strain H37Rv; format: in vivo, mice
# [5] = molecular target: T1, M. tuberculosis MhuD (Mycobacterium tuberculosis, UniProt P9WKH3); assay: MhuD heme/SnPPIX degradation assay by UV/vis spectroscopy; format: biochemical
# T1 construct: His6 (C); made in house; host or cells: Escherichia coli BL21-Gold (DE3)
# T1 sequence (P9WKH3 whole entry): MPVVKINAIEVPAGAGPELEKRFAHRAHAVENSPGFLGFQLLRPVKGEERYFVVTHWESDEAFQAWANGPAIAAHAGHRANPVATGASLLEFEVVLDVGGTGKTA
# [6] = molecular target: T2, recombinant human HO-1-G139A (hHO-1) (Homo sapiens, UniProt P09601, G139A); assay: heme degradation by recombinant human HO-1-G139A, UV/vis spectroscopy; format: biochemical; settings: 2 μM SnPPIX, 1 hour
# T2 construct: made in house
# T2 sequence (P09601 1-288 G139A): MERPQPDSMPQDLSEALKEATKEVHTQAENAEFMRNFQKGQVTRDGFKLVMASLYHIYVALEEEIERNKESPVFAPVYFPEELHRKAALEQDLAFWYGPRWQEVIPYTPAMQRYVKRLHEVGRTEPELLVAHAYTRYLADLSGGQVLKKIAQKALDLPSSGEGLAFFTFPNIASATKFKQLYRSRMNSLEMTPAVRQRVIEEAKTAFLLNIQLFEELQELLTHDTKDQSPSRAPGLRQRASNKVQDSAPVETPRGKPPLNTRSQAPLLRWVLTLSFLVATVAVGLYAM
# [7] = tested on: heme oxygenase; settings: comparison SnPPIX vs ZnPPIX; cited from earlier work
# [8] = newborns, clinical use; cited from earlier work
# [9] = comparison ZnPPIX vs SnPPIX; cited from earlier work
smiles,measurement,setting,value
"c1ccc(-c2ccccn2)nc1 [DP, 2′2′dipyridyl]",reduction in the number of bacilli,[1],further enhancement in the reduction
same,intracellular bacterial burden,[1],significant reduction
[Cl][Fe]([Cl])[Cl] [FeCl3],effect on SnPPIX-induced reduction in bacillary load,[1],completely inhibited the reduction in bacillary load
same,number of bacteria,[1],did not significantly enhance the number of bacteria
O=S(=O)([O-])[O-].[Fe+2] [FeSO4],effect on SnPPIX-induced reduction in bacillary load,[1],completely inhibited the reduction in bacillary load
same,number of bacteria,[1],did not significantly enhance the number of bacteria
"NNC(=O)c1ccncc1 [Isoniazid, reference compound]",MIC99,"[2]; Mycobacterium tuberculosis, H37RV, 672 h, GAST + 10 μM Hemin",0.1 µM
same,MIC99,"[2]; Mycobacterium tuberculosis, H37RV, 672 h, GAST medium",0.1 µM
same,MIC99,"[2]; Mycobacterium tuberculosis, H37RV, 672 h, GASTFe medium",0.2 µM
"Cc1ncc(CO)c(C=NNC(=O)c2ccncc2)c1O [PIH, pyridoxal isonicotinoyl hydrazone]",reduction in the number of bacilli,[1],further enhancement in the reduction
same,intracellular bacterial burden,[1],significant reduction
"CO[C@H]1/C=C/O[C@@]2(C)Oc3c(C)c(O)c4c(O)c(c(/C=N/N5CCN(C)CC5)c(O)c4c3C2=O)NC(=O)/C(C)=C\C=C\[C@H](C)[C@H](O)[C@@H](C)[C@@H](O)[C@@H](C)[C@H](OC(C)=O)[C@@H]1C [Rifampicin, reference compound]",MIC,"[3]; Mycobacterium tuberculosis, 504 h, pH 6",0.04 µM
same,MIC,"[3]; Mycobacterium tuberculosis, 504 h",0.04 µM
"C=Cc1c(C)c2cc3[nH]c(cc4nc(cc5nc(cc1[nH]2)C(C)=C5CCC(=O)[O-])C(CCC(=O)[O-])=C4C)c(C)c3C=C.[Cl-].[Cl-].[Sn+4] [SnPPIX, tin (IV) protoporphyrin IX dichloride]",inhibition of bacterial growth,"[2]; 125 μM, complete (iron-containing) GAST medium",No inhibition of bacterial growth was observed
same,effect of hemin addition on toxicity in iron-free medium,"[2]; 125 μM, iron-free medium plus 10 μM hemin",reversed this effect
same,inhibition of bacterial growth,"[2]; 125 μM, iron-free medium",toxicity was observed
same,MIC99,[2]; GAST + 10 μM Hemin,>125 µM
same,MIC99,[2]; GAST medium,125 µM
same,MIC99,[2]; GASTFe medium,>125 µM
same,MIC,[3]; pH 6,>125 µM
same,inhibition of bacterial growth,[3]; pH 7,no inhibition of bacterial growth was observed
same,MIC,[3],>125 µM
same,effect on bacterial load by organ,"[4]; C57BL/6, lungs vs mediastinal lymph nodes or spleens",more prominent in the lungs
same,enhancement of RHZ efficacy,[4]; SnPPIX initiated 6 weeks after initiation of RHZ therapy,failed to enhance RHZ efficacy
same,bacterial loads,"[4]; TCR-α−/− mice, treatment from 4 wpi, euthanized two weeks after initiation",indistinguishable from those of untreated
same,mycobacterial load,"[4]; mouse, in vivo",highly significant reduction
same,protection / mortality kinetics,"[4]; mouse, in vivo",failed to protect
same,pulmonary bacterial load,"[4]; mouse, in vivo",not at 3 wpi; also recorded: no difference in bacterial loads
same,reduction in pulmonary bacterial loads below untreated infected mice,"[4]; mouse, in vivo",~1 log
same,bacterial loads in lungs and mediastinal lymph nodes vs non-treated mice,"[4]; mouse, in vivo, ip",diminished bacterial loads
same,pulmonary bacterial load,"[4]; mouse, in vivo, ip, 5 mg/kg",highly significant reduction
same,effect on heme degradation by MhuD,"[5]; 2 μM SnPPIX, 5 μM MhuD-heme, 1 hour",does not appear to have an effect
same,SnPPIX degradation by MhuD,[5]; monitored for 24 hours,no SnPPIX degradation even after 24 hours
same,heme-degrading activity of HO-1,[6],blocked
same,cellular bacterial load,[1]; added alone,reduced cellular bacterial load
same,heme oxygenase inhibitory capacity,[7],higher heme oxygenase inhibitory capacity compared with ZnPPIX
same,side effects,[8],minimum side effects
"C=CC1=C(C)c2cc3[n-]c(cc4[n-]c(cc5nc(cc1n2)C(C)=C5C=C)c(C)c4CCC(=O)O)c(CCC(=O)O)c3C.[Zn+2] [ZnPPIX, zinc (II) protoporphyrin IX]",solubility,[9],less soluble than SnPPIX
